Measured values from PubChem BioAssay AID328 (DTP/NCI, 2004).
Several values for one entry are separate records, joined by “and”; a condition that tells them apart may be missing. Equal values may be shown once. Inconclusive results and toxic doses are left out.

Tested on: BDF1 mice, P388 leukemia ip, median survival T/C
Assay: NCI In Vivo Anticancer Drug Screen. Data for tumor model P388 Leukemia (intraperitoneal) in B6D2F1 (BDF1) mice
Conditions: endpoint: median survival time, higher = longer survival
Method in brief: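 Steps: implant the tumour, treat one group with compound and another with vehicle, record survival, then divide treated by control.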

[1] = dose: 12.5 mg/kg/injection, schedule: Q01DX009 (ip), vehicle: water
[2] = dose: 12.5 mg/kg/injection, schedule: Q04DX003 (ip), vehicle: water
[3] = dose: 25.0 mg/kg/injection, schedule: Q01DX009 (ip), vehicle: water
[4] = dose: 25.0 mg/kg/injection, schedule: Q04DX003 (ip), vehicle: water
[5] = dose: 50.0 mg/kg/injection, schedule: Q01DX009 (ip), vehicle: water
[6] = dose: 50.0 mg/kg/injection, schedule: Q04DX003 (ip), vehicle: water
[7] = dose: 100.0 mg/kg/injection, schedule: Q04DX003 (ip), vehicle: water
[8] = dose: 100.0 mg/kg/injection, schedule: Q04DX003 (ip), vehicle: other
[9] = dose: 200.0 mg/kg/injection, schedule: Q04DX003 (ip), vehicle: other
[10] = dose: 400.0 mg/kg/injection, schedule: Q04DX003 (ip), vehicle: other
[11] = dose: 25.0 mg/kg/injection, schedule: Q01DX009 (ip), vehicle: saline
[12] = dose: 50.0 mg/kg/injection, schedule: Q01DX009 (ip), vehicle: saline
[13] = dose: 25.0 mg/kg/injection, schedule: Q01DX009 (ip), vehicle: saline with Tween-80
[14] = dose: 50.0 mg/kg/injection, schedule: Q01DX009 (ip), vehicle: saline with Tween-80
[15] = dose: 100.0 mg/kg/injection, schedule: Q01DX009 (ip), vehicle: saline with Tween-80
[16] = dose: 100.0 mg/kg/injection, schedule: Q01DX010 (ip), vehicle: saline
[17] = dose: 400.0 mg/kg/injection, schedule: Q01DX010 (ip), vehicle: saline
[18] = dose: 50.0 mg/kg/injection, schedule: Q04DX003 (ip), vehicle: other

## Nc1nc(N)c2cc(CNc3ccc(C(=O)NC(CC(=O)O)C(=O)O)cc3)ccc2n1 (stereo unspecified)
dose: 0.11 mg/kg/injection, schedule: Q01DX009 (ip), vehicle: saline
  T/C: 112 % of control
dose: 0.38 mg/kg/injection, schedule: Q01DX009 (ip), vehicle: saline
  T/C: 154 % of control
dose: 0.5 mg/kg/injection, schedule: Q01DX009 (ip), vehicle: saline
  T/C: 183 % of control
dose: 1.0 mg/kg/injection, schedule: Q04DX003 (ip), vehicle: saline sonified
  T/C: 213 % of control
dose: 2.0 mg/kg/injection, schedule: Q04DX003 (ip), vehicle: saline sonified
  T/C: 204 % of control
dose: 5.5 mg/kg/injection, schedule: Q04DX003 (ip), vehicle: saline sonified
  T/C: 161 % of control
dose: 6.25 mg/kg/injection, schedule: Q01DX009 (ip), vehicle: saline
  T/C: 95 % of control
dose: 8.25 mg/kg/injection, schedule: Q04DX003 (ip), vehicle: saline sonified
  T/C: 177 % of control
dose: 25.0 mg/kg/injection, schedule: Q04DX003 (ip), vehicle: saline sonified
  T/C: 96 % of control

## O=C(NCCNCc1ccccc1)c1ccccc1
[1]
  T/C: 96 % of control
[2]
  T/C: 92 % of control
dose: 16.0 mg/kg/injection, schedule: Q01DX009 (ip), vehicle: water
  T/C: 100 % of control
[3]
  T/C: 99 % of control and 122 % of control
[4]
  T/C: 95 % of control and 99 % of control
dose: 40.0 mg/kg/injection, schedule: Q01DX009 (ip), vehicle: water
  T/C: 113 % of control
[5]
  T/C: 103 % of control
[6]
  T/C: 97 % of control
dose: 100.0 mg/kg/injection, schedule: Q01DX009 (ip), vehicle: water
  T/C: 90 % of control
[7]
  T/C: 95 % of control and 99 % of control

## CCCCCCCCCC(=O)CCCCC
[8]
  T/C: 109 % of control
[9]
  T/C: 109 % of control
[10]
  T/C: 113 % of control

## O=C1NCN(c2ccccc2)C12CCNCC2
[11]
  T/C: 90 % of control
[12]
  T/C: 113 % of control
dose: 100.0 mg/kg/injection, schedule: Q01DX009 (ip), vehicle: saline
  T/C: 100 % of control

## C=C(C)C(=O)NCC(=O)NC(CC(C)C)C(=O)Oc1ccc([N+](=O)[O-])cc1 (stereo unspecified)
[13]
  T/C: 97 % of control
[14]
  T/C: 97 % of control
[15]
  T/C: 90 % of control

## O=C(NC(=O)c1c(F)cccc1F)Nc1ccc(OCc2ccccc2)cc1
[14]
  T/C: 93 % of control
[15]
  T/C: 86 % of control

## CC(=O)N(C(C)=O)c1cc([N+](=O)[O-])ccc1C
dose: 100.0 mg/kg/injection, schedule: Q04DX003 (ip), vehicle: saline with Tween-80
  T/C: 106 % of control
dose: 200.0 mg/kg/injection, schedule: Q04DX003 (ip), vehicle: saline with Tween-80
  T/C: 93 % of control

## C=C(Cl)COC1CCS(=O)(=O)C1 (stereo unspecified)
dose: 6.25 mg/kg/injection, schedule: Q01DX009 (ip), vehicle: saline with Tween-80
  T/C: 90 % of control
dose: 12.5 mg/kg/injection, schedule: Q01DX009 (ip), vehicle: saline with Tween-80
  T/C: 90 % of control
[13]
  T/C: 93 % of control

## COC1/C=C/OC2(C)Oc3c(C)c(O)c4c(O)c(c(/C=N/N5CCN(Cc6ccccc6)CC5)c(O)c4c3C2=O)NC(=O)C(C)=C/C=C/C(C)C(O)C(C)C(O)C(C)C(OC(C)=O)C1C (stereo unspecified)
[11]
  T/C: 119 % of control
[12]
  T/C: 100 % of control

## CCOC(=O)CC1=NN(C(=O)c2ccccc2)C(=NC(=O)c2ccccc2)SC1
[14]
  T/C: 99 % of control
[15]
  T/C: 101 % of control
dose: 200.0 mg/kg/injection, schedule: Q01DX009 (ip), vehicle: saline with Tween-80
  T/C: 90 % of control

## Cc1noc2nc[nH]c(=O)c12
dose: 100.0 mg/kg/injection, schedule: Q04DX002 (ip), vehicle: saline with Tween-80
  T/C: 107 % of control
dose: 200.0 mg/kg/injection, schedule: Q04DX002 (ip), vehicle: saline with Tween-80
  T/C: 106 % of control
dose: 400.0 mg/kg/injection, schedule: Q04DX002 (ip), vehicle: saline with Tween-80
  T/C: 94 % of control

## OC[C@@H](O)[C@@H](O)CO
[16]
  T/C: 90 % of control
[17]
  T/C: 110 % of control

## CCOC(=O)CCN(CCN(C)C)c1cc(O)c2c(c1O)C(=O)c1ccccc1C2=O
dose: 50.0 mg/kg/injection, schedule: Q01DX005 (ip), vehicle: saline with Tween-80
  T/C: 123 % of control

## Cc1cc(C(=O)N/N=C/c2ccccc2O)c2cc(Br)ccc2n1
dose: 0.78 mg/kg/injection, schedule: Q01DX009 (ip), vehicle: saline with Tween-80
  T/C: 95 % of control
dose: 1.56 mg/kg/injection, schedule: Q01DX009 (ip), vehicle: saline with Tween-80
  T/C: 95 % of control
dose: 3.12 mg/kg/injection, schedule: Q01DX009 (ip), vehicle: saline with Tween-80
  T/C: 97 % of control

## CC/C(=C(\c1ccccc1)c1ccc(OCCN(C)C)cc1)c1ccccc1
dose: 25.0 mg/kg/injection, schedule: Q01DX009 (ip), vehicle: Klucel (hydroxypropylcellulose) (HPC)
  T/C: 122 % of control
dose: 50.0 mg/kg/injection, schedule: Q01DX009 (ip), vehicle: Klucel (hydroxypropylcellulose) (HPC)
  T/C: 122 % of control
dose: 100.0 mg/kg/injection, schedule: Q01DX009 (ip), vehicle: Klucel (hydroxypropylcellulose) (HPC)
  T/C: 102 % of control and 108 % of control

## O=[N+]([O-])c1ccc(N2CCCC(n3cccc3)C2)c([N+](=O)[O-])c1 (stereo unspecified)
[14]
  T/C: 109 % of control
[15]
  T/C: 115 % of control

## COc1ccc(C(C#N)CC(=O)c2ccc(OCc3ccccc3)c(OC)c2)cc1OC (stereo unspecified)
[18]
  T/C: 96 % of control
[8]
  T/C: 88 % of control
[9]
  T/C: 87 % of control
[10]
  T/C: 90 % of control

## CCOC(=O)CC(COC)C(C(=O)OCC)C(=O)OCC (stereo unspecified)
dose: 25.0 mg/kg/injection, schedule: Q01DX009 (ip), vehicle: other
  T/C: 95 % of control
dose: 50.0 mg/kg/injection, schedule: Q01DX009 (ip), vehicle: other
  T/C: 121 % of control
[18]
  T/C: 122 % of control
dose: 100.0 mg/kg/injection, schedule: Q01DX009 (ip), vehicle: other
  T/C: 92 % of control
[8]
  T/C: 122 % of control
dose: 200.0 mg/kg/injection, schedule: Q01DX009 (ip), vehicle: other
  T/C: 100 % of control
[9]
  T/C: 122 % of control
[10]
  T/C: 100 % of control

## Cc1cc2nc3c(=O)[nH]c(=O)nc-3n(CC(O)C(O)C(O)C(O)CO)c2cc1C (stereo unspecified)
dose: 25.0 mg/kg/injection, schedule: Q01DX010 (ip), vehicle: saline
  T/C: 109 % of control
dose: 50.0 mg/kg/injection, schedule: Q01DX010 (ip), vehicle: saline
  T/C: 95 % of control and 100 % of control
[16]
  T/C: 90 % of control and 95 % of control and 104 % of control
dose: 200.0 mg/kg/injection, schedule: Q01DX010 (ip), vehicle: saline
  T/C: 100 % of control and 114 % of control
[17]
  T/C: 104 % of control and 110 % of control and 114 % of control

## O=C1NC(c2cccs2)(c2cccs2)C(=O)N1Cl
dose: 6.25 mg/kg/injection, schedule: Q01DX009 (ip), vehicle: water
  T/C: 94 % of control
dose: 6.25 mg/kg/injection, schedule: Q04DX003 (ip), vehicle: water
  T/C: 97 % of control
[1]
  T/C: 104 % of control
[2]
  T/C: 97 % of control
[3]
  T/C: 103 % of control
[4]
  T/C: 97 % of control
[5]
  T/C: 116 % of control
[6]
  T/C: 95 % of control
[7]
  T/C: 95 % of control
dose: 200.0 mg/kg/injection, schedule: Q04DX003 (ip), vehicle: water
  T/C: 88 % of control
